Reference: ChEMBL document CHEMBL4483862, “Open-source discovery of chemical leads for next-generation chemoprotective antimalarials” (2018)

Test system: Plasmodium berghei
Assay: Luciferase/luciferin-expressing antifolate-resistant parasites were used to infect a culture of HepG2 cells that were pre-incubated with compounds. Infected hepatocytes emit light due to the luciferase reaction. Assay results are presented as the percent inhibition of light emission compared to control. […]
Type: functional
Conditions: sporozoite; for IC90: read-out: LUCIFERASE INFECTION ASSAY - IC90
[1] = read-out: LUCIFERASE INFECTION ASSAY - IC50

Row | Structure (SMILES) | IC50 [1] | IC90 | further results
1 | CCN(CC)CCNC(=O)c1ccc(Nc2ccn3nc(-c4ccc(Cl)cc4)cc3n2)cc1 | > 7.13 µM | > 7.13 µM | 
2 | CC(=O)c1c[nH]c(C(=O)OCC(=O)NCCc2ccc(C(C)C)cc2)c1 | > 2 µM | > 2 µM | 
3 | CCn1nnnc1Sc1nc(C)nc2sc3c(c12)CCC3 |  | 3.73 µM | IC50 (HEPG2TOX_HILL_SLOPE 68.5, HEPG2TOX_R_SQUARED 0.626, PBLUC_HILL_SLOPE 11, PBLUC_R_SQUARED 0.226, read-out: LUCIFERASE INFECTION ASSAY - IC50): 3.05 µM
4 | CCOc1ccc(NC(=S)N/N=C/c2cc(Cl)cc([N+](=O)[O-])c2O)cc1 |  | > 10 µM | IC50 (HEPG2TOX_HILL_SLOPE 8.71, HEPG2TOX_R_SQUARED 0.133, PBLUC_HILL_SLOPE 2.29, PBLUC_R_SQUARED 0.38, read-out: LUCIFERASE INFECTION ASSAY - IC50): 6.7 µM
5 | CCCn1c(C)cc(/C=C(\C#N)C(=O)Nc2ccc3c(c2)OCO3)c1C |  | 2.3 µM | IC50 (HEPG2TOX_HILL_SLOPE 1.46, HEPG2TOX_R_SQUARED 0.846, PBLUC_HILL_SLOPE 2.22, PBLUC_R_SQUARED 0.625, read-out: LUCIFERASE INFECTION ASSAY - IC50): 0.857 µM
6 | Clc1ccc(-c2n[nH]cc2CNCC2CN(Cc3ccccc3)CCO2)cc1 (stereo unspecified) |  | > 10 µM | IC50 (PBLUC_HILL_SLOPE 12.9, PBLUC_R_SQUARED 0.0772, read-out: LUCIFERASE INFECTION ASSAY - IC50): 9.51 µM
7 | Cc1ccc(C(=O)OCCOc2ccccc2)cc1NC(=O)c1ccco1 |  | 1.22 µM | IC50 (PBLUC_HILL_SLOPE 15.6, PBLUC_R_SQUARED 0.272, read-out: LUCIFERASE INFECTION ASSAY - IC50): 1.06 µM
8 | C=CCNC(=S)N1N=C2/C(=C/c3ccc(OCC)cc3)CCCC2C1c1ccc(OCC)cc1 (stereo unspecified) |  | > 10 µM | IC50 (HEPG2TOX_HILL_SLOPE 0.856, HEPG2TOX_R_SQUARED 0.318, PBLUC_HILL_SLOPE 2.55, PBLUC_R_SQUARED 0.497, read-out: LUCIFERASE INFECTION ASSAY - IC50): 4.45 µM
9 | Cc1cc(C)nc(Nc2nc(C(N)Cc3ccc(C(F)(F)F)cc3)cs2)n1 (stereo unspecified) | > 8.39 µM | > 8.39 µM | 
10 | Cc1nccnc1-c1ccnn1C(=O)Nc1cc(Cl)cc(Cl)c1 |  | 0.481 µM | IC50 (HEPG2TOX_HILL_SLOPE 3.03, HEPG2TOX_R_SQUARED 0.982, PBLUC_HILL_SLOPE 8.5, PBLUC_R_SQUARED 0.804, read-out: LUCIFERASE INFECTION ASSAY - IC50): 0.372 µM
11 | Cc1ccc(CN(CCc2ccccc2)Cn2nc(CCC(N)=O)n(C3CC3)c2=S)s1 | > 10 µM | > 10 µM | 
12 | Cc1ccc(Cl)cc1NC(=O)C[n+]1ccc(Cc2ccc([N+](=O)[O-])cc2)cc1 |  | > 10 µM | IC50 (HEPG2TOX_HILL_SLOPE 5.4, HEPG2TOX_R_SQUARED 0.89, PBLUC_HILL_SLOPE 4.32, PBLUC_R_SQUARED 0.492, read-out: LUCIFERASE INFECTION ASSAY - IC50): 6.22 µM
13 | CC(=O)c1cc2c(N)c(C(=O)OCc3cccc4ccccc34)sc2nc1C | > 10 µM | > 10 µM | 
14 | O=C(c1c[nH]c(-c2ccnc(N3CCCC3)c2)c1)c1ccccc1O |  | 7.71 µM | IC50 (HEPG2TOX_HILL_SLOPE 2.58, 1.58, HEPG2TOX_R_SQUARED 0.907, 0.987, PBLUC_HILL_SLOPE 3.48, 1.53, PBLUC_R_SQUARED 0.289, 0.786, read-out: LUCIFERASE INFECTION ASSAY - IC50): 3.06 µM
15 | COc1ccccc1NCC(=O)N/N=C1/C(=O)Nc2ccc(C(C)C)cc21 | > 10 µM | > 10 µM | 
16 | CN(Cc1nc(N)c2c3c(sc2n1)CCCC3)Cc1cccs1 |  | > 10 µM | IC50 (PBLUC_HILL_SLOPE 2.01, PBLUC_R_SQUARED 0.418, read-out: LUCIFERASE INFECTION ASSAY - IC50): 4.1 µM
17 | CCC1(c2ccc(F)cc2)NC(=O)N(CC(=O)Nc2ccc(-c3nc4ccc(C)cc4s3)cc2)C1=O (stereo unspecified) | 9.87 µM | > 10 µM | 
18 | CSc1cccc(N2C(=O)C=C(C)C2=O)c1 |  | > 14.1 µM | IC50 (PBLUC_HILL_SLOPE 2.08, PBLUC_R_SQUARED 0.24, read-out: LUCIFERASE INFECTION ASSAY - IC50): 13.4 µM
19 | COc1ccc(-c2c[n+]3c4n2CCCCC4=C(c2ccccc2)C3)cc1 |  | > 10 µM | IC50 (PBLUC_HILL_SLOPE 3.06, PBLUC_R_SQUARED 0.525, read-out: LUCIFERASE INFECTION ASSAY - IC50): 6.77 µM
20 | O=C(N/N=C/C1=C(N2CCOCC2)C(=C\c2ccccc2)/CC1)c1ccco1 | 2.96 µM | 3.47 µM | 
21 | O=C(NC(=O)c1cnn2c(C(F)(F)F)cc(C(F)(F)F)nc12)Nc1ccc(Cl)cc1 | > 7.31 µM | > 7.31 µM | 
22 | COc1ccc(CC(N)c2csc(NC(=O)Nc3cccc(Cl)c3)n2)cc1 (stereo unspecified) | > 8.19 µM | > 8.19 µM | 
23 | N#Cc1c(N)nc2c(c1N)C(C(C#N)C#N)c1cc(Br)ccc1O2 (stereo unspecified) |  | > 8.66 µM | IC50 (FFLUC_HILL_SLOPE 1.21, FFLUC_R_SQUARED 0.243, read-out: LUCIFERASE INFECTION ASSAY - IC50): > 8.66 µM
24 | CCO/C(C)=N\OC(=O)c1c(-c2c(Cl)cccc2Cl)noc1C | > 9.24 µM | > 9.24 µM | 

Row | Structure (SMILES) | IC50 [1] | IC90 | further results
25 | Cc1ccccc1-c1ccc(CN2CCC3(CC2)C(=O)N(Cc2cccnc2)C(=O)N3C)cc1 | 2.36 µM | 2.76 µM | 
26 | COc1cc(/C=C/C(=O)Oc2c(Cl)cc(Cl)c3ccc(C)nc23)cc(OC)c1OC |  | 3.54 µM | IC50 (HEPG2TOX_HILL_SLOPE 1.48, HEPG2TOX_R_SQUARED 0.88, PBLUC_HILL_SLOPE 12.1, PBLUC_R_SQUARED 0.667, read-out: LUCIFERASE INFECTION ASSAY - IC50): 2.95 µM
27 | CCOC(=O)c1c(-c2ccccc2)csc1NC(=O)Cn1ncc(Cl)c(Cl)c1=O | 3.35 µM | 4.1 µM | 
28 | O=C1C=CC(=O)N1c1ccccc1Cl | 6.18 µM | > 15.9 µM | 
29 | O=C(Nc1cccnc1-n1cccn1)c1csc(-c2ccc(Cl)cc2)n1 | > 2 µM | > 2 µM | 
30 | CC(C)(O)C#Cc1ccc(/C=N/Nc2cccc(C(F)(F)F)n2)cc1 |  | 6.05 µM | IC50 (PBLUC_HILL_SLOPE 6.25, PBLUC_R_SQUARED 0.631, read-out: LUCIFERASE INFECTION ASSAY - IC50): 4.26 µM
31 | COc1ccc(-c2nc(NC(=O)c3ccc(-n4cccn4)nc3)sc2C)cc1 | > 10 µM | > 10 µM | 
32 | CNC(=O)NC(=O)C(C)N1CCN(CCc2cccs2)CC1 (stereo unspecified) | > 10 µM | > 10 µM | 
33 | CCOC(=O)c1sc(SCc2ccc(Cl)cc2)c2c1CCCC2=O |  | > 8.66 µM | IC50 (FFLUC_HILL_SLOPE 175, FFLUC_R_SQUARED 0.438, PBLUC_HILL_SLOPE 6.18, PBLUC_R_SQUARED 0.111, read-out: LUCIFERASE INFECTION ASSAY - IC50): > 8.66 µM
34 | Cn1c(Cc2ccccc2)nc2cnc(Nc3cccc(C(F)(F)F)c3)cc21 | > 10 µM | > 10 µM | 
35 | O=c1c(-c2ccc([N+](=O)[O-])cc2)c(-c2ccc(Cl)cc2)cc2[nH]c3ccccc3n12 | > 10 µM | > 10 µM | 
36 | Cc1cc(C)c(C)c(S)c1C | > 10 µM | > 10 µM | 
37 | CNS(=O)(=O)c1ccc(CCC(=O)OC2CCCCC2=O)cc1 (stereo unspecified) | > 10 µM | > 10 µM | 
38 | O=C(Nc1ccccc1)c1cc(Nc2ccc(O)cc2)ncn1 |  | > 10.8 µM | IC50 (FFLUC_HILL_SLOPE 0.974, FFLUC_R_SQUARED 0.921, PBLUC_HILL_SLOPE 1.57, PBLUC_R_SQUARED 0.726, read-out: LUCIFERASE INFECTION ASSAY - IC50): 5.2 µM
39 | CCCCn1c(N)c(N(CC(C)C)C(=O)c2cc(Br)c(Br)s2)c(=O)[nH]c1=O | 8.31 µM | 9.14 µM | 
40 | CCn1nnc2cc(C(=O)Nc3cccc(Cl)c3N3CCOCC3)ccc21 |  | > 10 µM | IC50 (HEPG2TOX_HILL_SLOPE 5.65, HEPG2TOX_R_SQUARED 0.159, PBLUC_HILL_SLOPE 1.72, PBLUC_R_SQUARED 0.0547, read-out: LUCIFERASE INFECTION ASSAY - IC50): 5.31 µM
41 | c1ccn2c(Sc3ncnc4ccsc34)nnc2c1 |  | > 10 µM | IC50 (HEPG2TOX_HILL_SLOPE 1.03, HEPG2TOX_R_SQUARED 0.779, PBLUC_HILL_SLOPE 16.5, PBLUC_R_SQUARED 0.198, read-out: LUCIFERASE INFECTION ASSAY - IC50): 9.21 µM
42 | CC1CC(C)CN(c2nc3c(c(=O)[nH]c(=O)n3C)n2Cc2ccccc2F)C1 (stereo unspecified) |  | > 8.56 µM | IC50 (PBLUC_HILL_SLOPE 14.3, PBLUC_R_SQUARED 0.575, read-out: LUCIFERASE INFECTION ASSAY - IC50): 8.19 µM
43 | C#CCNS(=O)(=O)c1ccc(C(=O)Nc2ccccc2O)cc1 |  | 7.83 µM | IC50 (PBLUC_HILL_SLOPE 1.57, PBLUC_R_SQUARED 0.611, read-out: LUCIFERASE INFECTION ASSAY - IC50): 1.93 µM
44 | CC(C)(c1ccccc1)c1ccc(OCC(O)CNCCSc2ccc(Br)cc2)cc1 (stereo unspecified) | > 10 µM | > 10 µM | 
45 | NC(=O)c1cc(NC(=O)c2cccs2)ccc1N1CCCCC1 |  | 4.83 µM | IC50 (HEPG2TOX_HILL_SLOPE 7.03, HEPG2TOX_R_SQUARED 0.757, PBLUC_HILL_SLOPE 7.92, PBLUC_R_SQUARED 0.39, read-out: LUCIFERASE INFECTION ASSAY - IC50): 3.66 µM
46 | O=C(Nc1ccc(OC(F)(F)F)cc1)c1cc([N+](=O)[O-])c[nH]c1=O |  | > 10 µM | IC50 (PBLUC_HILL_SLOPE 2.36, PBLUC_R_SQUARED 0.402, read-out: LUCIFERASE INFECTION ASSAY - IC50): 5.59 µM
47 | COc1ccc(NS(=O)(=O)c2c(C)c(C)c(C)c(C)c2C)cc1O |  | 3.8 µM | IC50 (FFLUC_HILL_SLOPE 1.05, FFLUC_R_SQUARED 0.782, HEPG2TOX_HILL_SLOPE 1.26, HEPG2TOX_R_SQUARED 0.985, PBLUC_HILL_SLOPE 23, PBLUC_R_SQUARED 0.188, read-out: LUCIFERASE INFECTION ASSAY - IC50): 3.45 µM
48 | COc1ccc(-c2ccc(C=C(C#N)C#N)s2)cc1 | 0.403 µM | 0.914 µM | 
